Like-named read-outs stand apart in the source and are kept apart here.

The source of these data is patent publication US8594947B2, “Crystal structure of an angiotensin-converting enzyme (ACE) and uses thereof” (University of Bath, priority 2002, dated 2013).

For data set [1], the target named is T1, tACE (Homo sapiens, UniProt P12821).
T1 construct: made in house; host or cells: CHO-K1 cells, stably transfected; soluble enzyme purified from the medium
Description: Kinetic constants for tACE hydrolysis of hippuryl-L-histidyl-L-leucine (Hip-His-Leu). It is filed as biochemical. Conditions: cells expressing tACEΔ36NJ treated with the glucosidase I inhibitor. As for the experimental part:
(§1) Soluble, recombinant tACE (wild-type […], ACEΔ36NJ (SEQ ID NO: 2) and ACE glycosylation mutants), is purified from conditioned media by affinity chromatography on a Sepharose-28-lisinopril affinity resin. The protein is quantitated by amino acid analysis and assayed for activity using the substrate hippuryl-L-histidyl-L-leucine , as described (Ehlers, MRE, Chen, Y—N, Riordan, JF (1991) Proc Natl Acad Sci USA 88, 1009-1013).
(§2) Assays are performed in 100 mM potassium phosphate pH 8.3 containing 300 mM NaCl. Initial velocities are calculated over a range of Hip-His-Leu concentrations (0.2-5.0 mM) under initial rate conditions and fit to the Michaelis-Menten equation. Km and Vmax values are determined by non-linear regression analysis.

The conditions of data set [2]: cited from earlier work.
Data set [3] relates to tACE glycosylation. Description: Inhibition of tACE glycosylation in presence of tunicamycin (cellular ACE activity, Western blot). It is filed as cell-based. Conditions: CHO cells expressing tACE-wt, 5 μg/ml tunicamycin. As for the experimental part:
CHO cells expressing tACE-wt are grown to confluence in 6-well plates and induced overnight in 2% medium in the absence and presence of 5 μg/ml tunicamycin. Fresh medium is added and cells are grown in the absence and presence of 5 μg/ml tunicamycin. At 6, 8, 12, 16, 20 and 24 hours detergent-solubilised cell samples are collected. After separating the proteins on 10% SDS-PAGE they are immunodetected by Western blotting.
tACE-wt (SEQ ID NO: 1), tACEΔ36, tACEΔ36-g1, -g2, -g3, -g12, -g13, -g23, -g123 and -g1234 are immunodetected by Western blotting of cell lysates and harvested medium from transfected CHO cells. Proteins are separated on 10% SDS-PAGE and transferred to nitrocellulose membrane (Hybond-C, Amersham). The membrane is probed with a polyclonal rabbit anti-human tACE antibody. The membrane is developed using the ECL chemiluminescence kit (Amersham) and visualised on autoradiographic film, as per instructions.
(Immunoblotting shows a protein as a band on a membrane.)

Data set [4] deals with tACE. Description: Kinetic constants for tACE hydrolysis of hippuryl-L-histidyl-L-leucine (Hip-His-Leu). It is filed as biochemical, human. Conditions: hydrolysis of Hip-His-Leu. How it is done:
as §1, §2

Consider `CCCCN1C[C@H](O)[C@@H](O)[C@H](O)[C@H]1CO` [NB-DNJ, N-butyldeoxynojirimycin], for which the “Effect of treating the expressing cells on kinetic properties of the expressed enzymes” value in data set [1] was “do not alter the kinetic properties”.
With `CCOC(=O)[C@H](CCc1ccccc1)N[C@@H](C)C(=O)N1CCC[C@H]1C(=O)O` [enalapril], the “Risk of hospitalization for heart failure” value is on record as “no such effect” in data set [2] (similar black patients) and “significant reduction” in data set [2] (white patients with left ventricular function).
On to tunicamycin, for which the “Formation of mature, glycosylated tACE-wt (Western blot)” value in data set [3] was “partially inhibits”. Besides, the “Cellular tACE-wt activity in treated versus untreated cells” value in data set [3] (data not shown) is “approximately three-fold lower”.

B1: tACE-wt: wild-type human testis ACE (SEQ ID NO: 1) retaining its 36-residue N-terminus, transmembrane region and juxtamembrane stalk, expressed in CHO cells (protein, listed as Homo sapiens)
chain: SQQVTVTHGTSSQATTSSQTTTHQATAHQTSAQSPNLVTDEAEASKFVEEYDRTSQVVWNEYAEANWNYNTNITTETSKILLQKNMQIANHTLKYGTQARKFDVNQLQNTTIKRIIKKVQDLERAALPAQELEEYNKILLDMETTYSVATVCHPNGSCLQLEPDLTNVMATSRKYEDLLWAWEGWRDKAGRAILQFYPKYVELINQAARLNGYVDAGDSWRSMYETPSLEQDLERLFQELQPLYLNLHAYVRRALHRHYGAQHINLEGPIPAHLLGNMWAQTWSNIYDLVVPFPSAPSMDTTEAMLKQGWTPRRMFKEADDFFTSLGLLPVPPEFWNKSMLEKPTDGREVVCHASAWDFYNGKDFRIKQCTTVNLEDLVVAHHEMGHIQYFMQYKDLPVALREGANPGFHEAIGDVLALSVSTPKHLHSLNLLSSEGGSDEHDINFLMKMALDKIAFIPFSYLVDQWRWRVFDGSITKENYNQEWWSLRLKYQGLCPPVPRTQGDFDPGAKFHIPSSVPYIRYFVSFIIQFQFHEALCQAAGHTGPLHKCDIYQSKEAGQRLATAMKLGFSRPWPEAMQLITGQPNMSASAMLSYFKPLLDWLRTENELHGEKLGWPQYNWTPNSARSEGPLPDSGRVSFLGLDLDAQQARVGQWLLLFLGIALLVATLGLSQRLFSIRHRSLHRHSHGPQFGSEVELRHS
In the case of B1, in data set [4] (100 mM potassium phosphate pH 8.3, 300 mM NaCl), the Km was 2700 µM. Moreover, the kcat in data set [4] (calculated molecular mass of 100 kDa) was 193 s⁻¹.

A word on the Km: it is the concentration of substrate that gives half-maximal velocity. In general, kcat refers to the maximal rate divided by the concentration of active sites.
